The first test relates to MCH receptors. The experiment in a line: MCH receptor activity class (method not given). To be noted: MCH receptor activity class 1-3 (percent of control at 10^-7 M or IC50).
Consider `CN(C)c1cc(N[C@H]2CC[C@@H](CNC(=O)Nc3ccccc3I)CC2)nc2ccccc12` [compound 2378], for which the class was 3 (Class 3 The value of percent of control at 10^−7 M was more than 60% or the value of IC50 was more than 200 nM.).

The test is the same for the next values; noted with them: MCH receptor; class by percent of control at 10^-7 M or IC50.
On to `CN(C)c1nc(N[C@H]2CC[C@@H](NC(=S)Nc3ccc(NC(=O)OC(C)(C)C)cc3)CC2)nc2c1CCCC2` [compound 1996], for which the class is given as 3 (Class 3 The value of percent of control at 10^−7 M was more than 60% or the value of IC50 was more than 200 nM.).

Turning to `CN(C)c1cc(N[C@H]2CC[C@@H](NC(=O)c3cccc(OC(F)(F)F)c3)CC2)nc2ccccc12` [compound 54, N-(cis-4-{[4-(dimethylamino)quinolin-2-yl]amino}cyclohexyl)-3-(trifluoromethoxy)benzamide], the class is recorded as 2 (Class 2: The value of percent of control at 10^−7 M was from 40% to 60% or the value of IC′50 was from 50 nM to 200 nM.).

On to `CN(C)c1nc(N[C@H]2CC[C@@H](NC(=S)Nc3cc(C(F)(F)F)cc(C(F)(F)F)c3)CC2)nc2c1CCCC2` [compound 1927], for which the class is recorded as 3 (Class 3 The value of percent of control at 10^−7 M was more than 60% or the value of IC50 was more than 200 nM.).

Regarding `CN(C)c1nc(N[C@H]2CC[C@@H](NC(=S)Nc3cc(C(F)(F)F)ccc3F)CC2)nc2c1CCCC2` [compound 1977], the class was 3 (Class 3 The value of percent of control at 10^−7 M was more than 60% or the value of IC50 was more than 200 nM.).

Staying with this test, now noted: activity class per percent of control at 10^-7 M or IC50.
For `CN(C)c1nc(N[C@H]2CC[C@@H](CNC(=O)CCc3ccccc3O)CC2)nc2c1CCCC2` [compound 1067], the class is 3 (Class 3 The value of percent of control at 10^−7 M was more than 60% or the value of IC50 was more than 200 nM.).

The same test, now with this note: class by percent of control at 10^-7 M or IC50.
As to `Cc1cc(C)c(C(=O)C(=O)N[C@H]2CC[C@@H](Nc3cc(N(C)C)c4ccccc4n3)CC2)c(C)c1` [compound 775, N-(cis-4-{[4-(dimethylamino)quinolin-2-yl]amino}cyclohexyl)-2-mesityl-2-oxoacetamide], the class is 2 (Class 2: The value of percent of control at 10^−7 M was from 40% to 60% or the value of IC′50 was from 50 nM to 200 nM.).

As to `COc1ccc(CN[C@H]2CC[C@@H](Nc3nccc(N(C)C)n3)CC2)c2ccccc12` [compound 1209], the class is given as 3 (Class 3 The value of percent of control at 10^−7 M was more than 60% or the value of IC50 was more than 200 nM.).

For `CN(C)c1ccnc(N[C@H]2CC[C@@H](NC(=O)c3ccc(F)c(F)c3F)CC2)n1` [compound 342], the class is given as 3 (Class 3 The value of percent of control at 10^−7 M was more than 60% or the value of IC50 was more than 200 nM.).

`CN(C)c1ccnc(N[C@H]2CC[C@@H](NC(=O)c3cccc(OC(F)(F)F)c3)CC2)n1` [compound 272, N-(cis-4-{[4-(dimethylamino)pyrimidin-2-yl]amino}cyclohexyl)-3-(trifluoromethoxy)benzamide]: the class is 1 (Class 1: The value of percent of control at 10^−7 M was less than 40% or the value of IC50 was less than 50 nM.).

In the case of `CN(C)c1ccnc(N[C@H]2CC[C@@H](NCc3ccc(F)c(Br)c3)CC2)n1` [compound 1225], the class is listed as 3 (Class 3 The value of percent of control at 10^−7 M was more than 60% or the value of IC50 was more than 200 nM.).

`CN(C)c1ccnc(N[C@H]2CC[C@@H](CNCc3cccc(Br)c3)CC2)n1` [compound 1264]: the class is given as 3 (Class 3 The value of percent of control at 10^−7 M was more than 60% or the value of IC50 was more than 200 nM.).

Turning to `CCOC(=O)c1cccc(NC(=O)N[C@H]2CC[C@@H](Nc3nccc(N(C)C)n3)CC2)c1` [compound 2217], the class is recorded as 3 (Class 3 The value of percent of control at 10^−7 M was more than 60% or the value of IC50 was more than 200 nM.).

For `Cc1cc(C)cc(NC(=O)N[C@H]2CC[C@@H](Nc3nc4c(c(N(C)C)n3)CCCC4)CC2)c1` [compound 1869], the class is listed as 3 (Class 3 The value of percent of control at 10^−7 M was more than 60% or the value of IC50 was more than 200 nM.).

Take `CN(C)c1cc(N[C@H]2CC[C@@H](NC(=S)Nc3cccc4ccccc34)CC2)nc2ccccc12` [compound 2174]: the class is 3 (Class 3 The value of percent of control at 10^−7 M was more than 60% or the value of IC50 was more than 200 nM.).

For the compound `COc1ccc(CNC[C@H]2CC[C@@H](Nc3nc4c(c(N(C)C)n3)CCCC4)CC2)cc1` [compound 1383], the class was 3 (Class 3 The value of percent of control at 10^−7 M was more than 60% or the value of IC50 was more than 200 nM.).

For `CCOc1cc(CNC[C@H]2CC[C@@H](Nc3cc(N(C)C)c4ccccc4n3)CC2)ccc1O` [compound 1159], the class is 3 (Class 3 The value of percent of control at 10^−7 M was more than 60% or the value of IC50 was more than 200 nM.).

For the compound `CN(C)c1ccnc(N[C@H]2CC[C@@H](NC(=O)Cc3cc(C(C)(C)C)c(O)c(C(C)(C)C)c3)CC2)n1` [compound 842], the class is 1 (Class 1: The value of percent of control at 10^−7 M was less than 40% or the value of IC50 was less than 50 nM.).

For the compound `CCOC(=O)[C@H](Cc1ccccc1)NC(=O)N[C@H]1CC[C@@H](Nc2cc(N(C)C)c3ccccc3n2)CC1` (relative stereo) [compound 2160], the class is recorded as 3 (Class 3 The value of percent of control at 10^−7 M was more than 60% or the value of IC50 was more than 200 nM.).

Consider `CN(C)c1nc(N[C@H]2CC[C@@H](NC(=S)NCc3cccc4ccccc34)CC2)nc2c1CCCC2` [compound 1767], for which the class is 3 (Class 3 The value of percent of control at 10^−7 M was more than 60% or the value of IC50 was more than 200 nM.).

In the case of `COc1cc(CN[C@H]2CC[C@@H](Nc3nc4c(c(N(C)C)n3)CCCC4)CC2)ccc1O` [compound 1362], the class was 3 (Class 3 The value of percent of control at 10^−7 M was more than 60% or the value of IC50 was more than 200 nM.).

As to `CN(C)c1ccnc(N[C@H]2CC[C@@H](NC(=O)c3cnc4ccccc4c3)CC2)n1` [compound 915], the class was 3 (Class 3 The value of percent of control at 10^−7 M was more than 60% or the value of IC50 was more than 200 nM.).

For `CN(C)c1ccnc(N[C@H]2CC[C@@H](NC(=O)Nc3ccccc3Cl)CC2)n1` [compound 2179], the class is 3 (Class 3 The value of percent of control at 10^−7 M was more than 60% or the value of IC50 was more than 200 nM.).

As for `Cc1ccc(CNC[C@H]2CC[C@@H](Nc3nc4c(c(N(C)C)n3)CCCC4)CC2)s1` [compound 1422], the class is listed as 3 (Class 3 The value of percent of control at 10^−7 M was more than 60% or the value of IC50 was more than 200 nM.).

The same test, now with this note: class by percent of control at 10^−7 M or IC50.
`Cc1cccc(C(=O)N[C@H]2CC[C@@H](Nc3ncc(C)c(N(C)C)n3)CC2)c1` [compound 2937, N-(cis-4-{[4-(dimethylamino)-5-methylpyrimidin-2-yl]amino}cyclohexyl)-3-methylbenzamide]: the class is 1 (Class 1: The value of percent of control at 10^−7 M was less than 40% or the value of IC50 was less than 50 nM.).

`CN(C)c1nc(N[C@H]2CC[C@@H](NC(=O)c3ccc(F)c(F)c3)CC2)ncc1C(F)(F)F` [compound 3006]: the class is listed as 3 (Class 3 The value of percent of control at 10^−7 M was more than 60% or the value of IC50 was more than 200 nM.).

`Cc1cnc(N[C@H]2CC[C@@H](NC(=O)c3cc(F)ccc3F)CC2)nc1N(C)C` [compound 2902, N-(cis-4-{[4-(dimethylamino)-5-methylpyrimidin-2-yl]amino}cyclohexyl)-2,5-difluorobenzamide]: the class was 1 (Class 1: The value of percent of control at 10^−7 M was less than 40% or the value of IC50 was less than 50 nM.).

The record behind these values is patent US20050197350A1, “Novel quinoline, tetrahydroquinazoline, and pyrimidine derivatives and methods of treatment related to the use thereof” (TAISHO PHARMACEUTICAL CO., LTD., priority 2003, published 2005).
